Measurements as given in US20080274892A1, “Novel Haloalkylsulfonanilide Derivative, Herbicide, and Method of Use Thereof” (priority 2005, published 2008).

Assays:
[1] = test system: bulrush; experiment: Test Example 1: herbicidal efficacy on rice paddy weeds pre-emergence; type: in vivo, Scirpus juncoides; conditions: 21 days
[2] = test system: false pimpernel; experiment: as above; type: in vivo, Lindernia pyxidaria; conditions: 21 days
[3] = test system: barnyard glass; experiment: Test Example 2: herbicidal efficacy on rice paddy weeds post-emergence; type: in vivo, Echinochloa crus-galli; conditions: post-emergence, one leaf stage, 21 days after treatment
Method in brief: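 Efficacy on paddy weeds was scored on a 0 to 4 growth-inhibition scale: 4 for 90%-100%, 3 for 70%-89%, 2 for 40%-69%, 1 for 1%-39% and 0 for 0%. Barnyard glass was grown in clay loam in 75 cm^2 pots under 5 cm of water in a hot house. It was compared with untreated pots 21 days after treatment.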

[4] = test system: bulrush; experiment: as above; type: in vivo, Scirpus juncoides; conditions: post-emergence, one leaf stage, 21 days after treatment
[5] = test system: false pimpernel; experiment: as above; type: in vivo, Lindernia pyxidaria; conditions: post-emergence, one leaf stage, 21 days after treatment
[6] = test system: paddy rice plant (cultivar: Nihonbare); experiment: Test Example 3: phytotoxicity test for transplanted paddy rice plant; type: in vivo; conditions: transplanted rice, 21 days after treatment
Method in brief: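 Clay loam soil was placed in a 75 cm^2 plastic pot and flooded to a water depth of 5 cm. Two Nihonbare paddy rice plants at the two-leaf stage were transplanted 1 cm deep and grown in a hot house. After treatment, pots stayed in the hot house for 21 days, and phytotoxicity was then graded against an untreated control.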

[7] = test system: bulrush; experiment: Test Example 4: low dosage test for rice paddy weeds; type: in vivo, Scirpus juncoides; conditions: 300 g/ha as an active ingredient; plants treated at the one leaf stage; 21 days after treatment; vs untreated control
Description: (§1) The standard of judgment for herbicidal efficacy (degree of growth inhibition) and phytotoxicity 4 . . . 90%-100% of herbicidal efficacy or phytotoxicity 3 . . . 70%-89% of herbicidal efficacy or phytotoxicity 2 . . . 40%-69% of herbicidal efficacy or phytotoxicity 1 . . . 1%-39% of herbicidal efficacy or phytotoxicity 0 . . . 0% of herbicidal efficacy or phytotoxicity
A 75 cm^2 plastic pot was filled with soil (clay loam) and planted seeds of bulrush which is a rice paddy weed. After covering the top with 75 cm^3 soil, the pot was filled with water so that the soil submerged under 5 cm depth of water and kept in a hot house. The test plants, at the one leaf stage, were treated with the solution of a formulation containing the compound of the present invention as an active ingredient at the predetermined effective dosage (300 g/ha as an active ingredient). The pots were kept in a hot house for 21 days after the treatment and the herbicidal efficacy was investigated and evaluated according to the standard in Test Example 1 by comparing with the untreated control. Further, as a comparative compound, the compound No. 6-28 described in the JP-A-2004-107322 was used.

[8] = test system: transplanted paddy rice plant and Bulrush; experiment: Test Example 5: selectivity between transplanted paddy rice plant and weeds; type: in vivo; conditions: (highest dosage with no phytotoxicity to paddy rice)/(lowest dosage with effective level 4 on Bulrush); rice 3000-100 g/ha, Bulrush 300-10 g/ha; 21 days
Method: as §1
Phytotoxicity test for transplanted paddy rice plants was carried out, as in Test Example 3, by the treatment of 3000, 1000, 300 and 100 (g/ha of the active ingredient) dosage, and herbicidal test to weed post-emergence was carried out to Burlush seeded as in Test Example 2 treating at 300, 100, 30 and 10 (g/ha) dosage. The pots were kept in a hot house for 21 days after the treatment, and the phytotoxicity and the herbicidal efficacy was investigated and evaluated according to the standard in Test Example 1 by comparing with the untreated control. […] Further, as a comparative compound, the compound No. 6-28 described in the JP-A-2004-107322 was used.

[9] = dosage 1000 g/ha, treated 5 days after transplantation

Row | SMILES | Bulrush pre (herbicidal efficacy grade) ([1]; dosage 1000 g/ha) | False pimpernel pre (herbicidal efficacy grade) ([2]; dosage 1000 g/ha) | Burnyard grass post (herbicidal efficacy grade) ([3]; dosage 1000 g/ha) | Bulrush post (herbicidal efficacy grade) ([4]; dosage 1000 g/ha) | False pimpernel post (herbicidal efficacy grade) ([5]; dosage 1000 g/ha) | Phytotoxicity to paddy rice [6, 9] | Herbicide effect to Bulrush [7] | Selective Index [8] | Bulrush pre (herbicidal efficacy grade) ([1]; dosage 300 g/ha) | False pimpernel pre (herbicidal efficacy grade) ([2]; dosage 300 g/ha) | Burnyard grass post (herbicidal efficacy grade) ([3]; dosage 300 g/ha) | Bulrush post (herbicidal efficacy grade) ([4]; dosage 300 g/ha) | False pimpernel post (herbicidal efficacy grade) ([5]; dosage 300 g/ha) | Phytotoxicity to paddy rice ([6]; dosage 300 g/ha)
1 | CCC1CN(Cc2ccccc2N(C(=O)CC(C)C)S(=O)(=O)C(F)(F)F)C(=O)O1 (racemic) [1-53] | 4 (90%-100% of herbicidal efficacy or phytotoxicity) | 4 (90%-100% of herbicidal efficacy or phytotoxicity) | 4 (90%-100% of herbicidal efficacy or phytotoxicity) | 4 (90%-100% of herbicidal efficacy or phytotoxicity) | 4 (90%-100% of herbicidal efficacy or phytotoxicity) | 0 (0% of herbicidal efficacy or phytotoxicity) | 3 (70%-89% of herbicidal efficacy or phytotoxicity) | 10 |  |  |  |  |  | 
2 | COC(=O)N(c1ccccc1CN1CC(C)OC1=O)S(=O)(=O)C(F)(F)F (racemic) [1-54] | 4 (90%-100% of herbicidal efficacy or phytotoxicity) | 4 (90%-100% of herbicidal efficacy or phytotoxicity) | 4 (90%-100% of herbicidal efficacy or phytotoxicity) | 4 (90%-100% of herbicidal efficacy or phytotoxicity) |  | 0 (0% of herbicidal efficacy or phytotoxicity) | 4 (90%-100% of herbicidal efficacy or phytotoxicity) | 33.3 |  |  |  |  |  | 
3 | CCC1(C)CN(Cc2ccccc2NS(=O)(=O)C(F)(F)F)C(=O)O1 (racemic) [1-59] |  |  |  |  |  |  | 4 (90%-100% of herbicidal efficacy or phytotoxicity) | 3.3 | 4 (90%-100% of herbicidal efficacy or phytotoxicity) | 4 (90%-100% of herbicidal efficacy or phytotoxicity) | 3 (70%-89% of herbicidal efficacy or phytotoxicity) | 4 (90%-100% of herbicidal efficacy or phytotoxicity) | 4 (90%-100% of herbicidal efficacy or phytotoxicity) | 3 (70%-89% of herbicidal efficacy or phytotoxicity)
4 | CCC1(C)CN(Cc2ccccc2N(C(=O)OCC(C)C)S(=O)(=O)C(F)(F)F)C(=O)O1 (racemic) [1-60] | 4 (90%-100% of herbicidal efficacy or phytotoxicity) | 4 (90%-100% of herbicidal efficacy or phytotoxicity) | 4 (90%-100% of herbicidal efficacy or phytotoxicity) | 4 (90%-100% of herbicidal efficacy or phytotoxicity) | 4 (90%-100% of herbicidal efficacy or phytotoxicity) | 3 (70%-89% of herbicidal efficacy or phytotoxicity) | 4 (90%-100% of herbicidal efficacy or phytotoxicity) | ≧30 |  |  |  |  |  | 
5 | CC(C)C1(C)CN(Cc2ccccc2NS(=O)(=O)C(F)(F)F)C(=O)O1 (racemic) [1-101] | 4 (90%-100% of herbicidal efficacy or phytotoxicity) | 4 (90%-100% of herbicidal efficacy or phytotoxicity) | 4 (90%-100% of herbicidal efficacy or phytotoxicity) | 4 (90%-100% of herbicidal efficacy or phytotoxicity) | 4 (90%-100% of herbicidal efficacy or phytotoxicity) | 1 (1%-39% of herbicidal efficacy or phytotoxicity) | 4 (90%-100% of herbicidal efficacy or phytotoxicity) | 10 |  |  |  |  |  | 
6 | CC(C)COC(=O)N(c1ccccc1CN1CC(C)(C(C)C)OC1=O)S(=O)(=O)C(F)(F)F (racemic) [1-102] | 4 (90%-100% of herbicidal efficacy or phytotoxicity) | 4 (90%-100% of herbicidal efficacy or phytotoxicity) | 4 (90%-100% of herbicidal efficacy or phytotoxicity) | 4 (90%-100% of herbicidal efficacy or phytotoxicity) | 4 (90%-100% of herbicidal efficacy or phytotoxicity) | 1 (1%-39% of herbicidal efficacy or phytotoxicity) | 4 (90%-100% of herbicidal efficacy or phytotoxicity) | 10 |  |  |  |  |  | 
7 | O=C1OC2(CCC2)CN1Cc1ccccc1NS(=O)(=O)C(F)(F)F [1-87] |  |  |  |  |  |  | 3 (70%-89% of herbicidal efficacy or phytotoxicity) | 3 | 4 (90%-100% of herbicidal efficacy or phytotoxicity) | 4 (90%-100% of herbicidal efficacy or phytotoxicity) |  | 4 (90%-100% of herbicidal efficacy or phytotoxicity) | 4 (90%-100% of herbicidal efficacy or phytotoxicity) | 1 (1%-39% of herbicidal efficacy or phytotoxicity)
8 | CCC1(CC)CN(Cc2ccccc2N(C(=O)OC)S(=O)(=O)C(F)(F)F)C(=O)O1 [1-109] | 4 (90%-100% of herbicidal efficacy or phytotoxicity) | 4 (90%-100% of herbicidal efficacy or phytotoxicity) |  | 4 (90%-100% of herbicidal efficacy or phytotoxicity) | 4 (90%-100% of herbicidal efficacy or phytotoxicity) | 1 (1%-39% of herbicidal efficacy or phytotoxicity) | 4 (90%-100% of herbicidal efficacy or phytotoxicity) | ≧30 |  |  |  |  |  | 
9 | COCC1(C)CN(Cc2ccccc2N(C(=O)OC)S(=O)(=O)C(F)(F)F)C(=O)O1 (centres unmarked) [1-147] |  |  |  |  |  |  | 4 (90%-100% of herbicidal efficacy or phytotoxicity) | 10 | 4 (90%-100% of herbicidal efficacy or phytotoxicity) | 4 (90%-100% of herbicidal efficacy or phytotoxicity) |  | 4 (90%-100% of herbicidal efficacy or phytotoxicity) | 4 (90%-100% of herbicidal efficacy or phytotoxicity) | 1 (1%-39% of herbicidal efficacy or phytotoxicity)
10 | COC(=O)N(c1ccccc1CN1CC(C(F)(F)F)OC1=O)S(=O)(=O)C(F)(F)F (centres unmarked) [1-151] | 4 (90%-100% of herbicidal efficacy or phytotoxicity) | 4 (90%-100% of herbicidal efficacy or phytotoxicity) |  | 4 (90%-100% of herbicidal efficacy or phytotoxicity) | 4 (90%-100% of herbicidal efficacy or phytotoxicity) | 1 (1%-39% of herbicidal efficacy or phytotoxicity) | 3 (70%-89% of herbicidal efficacy or phytotoxicity) | 3 |  |  |  |  |  | 
11 | O=C1OC(C2CC2)(C2CC2)CN1Cc1ccccc1NS(=O)(=O)C(F)(F)F [1-170] | 4 (90%-100% of herbicidal efficacy or phytotoxicity) | 4 (90%-100% of herbicidal efficacy or phytotoxicity) |  | 4 (90%-100% of herbicidal efficacy or phytotoxicity) | 4 (90%-100% of herbicidal efficacy or phytotoxicity) | 2 (40%-69% of herbicidal efficacy or phytotoxicity) | 4 (90%-100% of herbicidal efficacy or phytotoxicity) | 10 |  |  |  |  |  | 
12 | COC(=O)N(c1ccccc1CN1CC(C2CC2)(C2CC2)OC1=O)S(=O)(=O)C(F)(F)F [1-172] | 4 (90%-100% of herbicidal efficacy or phytotoxicity) | 4 (90%-100% of herbicidal efficacy or phytotoxicity) |  | 4 (90%-100% of herbicidal efficacy or phytotoxicity) | 4 (90%-100% of herbicidal efficacy or phytotoxicity) | 1 (1%-39% of herbicidal efficacy or phytotoxicity) | 4 (90%-100% of herbicidal efficacy or phytotoxicity) | 10 |  |  |  |  |  | 
